The numbers were not newly measured in patent publication US20230382903A1, “SMALL MOLECULE MODULATORS OF GP130 SIGNALING PATHWAYS, TOPICAL FORMULATIONS AND METHOD OF USE THEREOF” (CarthroniX, Inc., priority 2020, published 2023), which cites them from elsewhere.

The target of data set [1] is T1, gp130 (Homo sapiens, UniProt P40189).
T1 sequence (P40189 23-918): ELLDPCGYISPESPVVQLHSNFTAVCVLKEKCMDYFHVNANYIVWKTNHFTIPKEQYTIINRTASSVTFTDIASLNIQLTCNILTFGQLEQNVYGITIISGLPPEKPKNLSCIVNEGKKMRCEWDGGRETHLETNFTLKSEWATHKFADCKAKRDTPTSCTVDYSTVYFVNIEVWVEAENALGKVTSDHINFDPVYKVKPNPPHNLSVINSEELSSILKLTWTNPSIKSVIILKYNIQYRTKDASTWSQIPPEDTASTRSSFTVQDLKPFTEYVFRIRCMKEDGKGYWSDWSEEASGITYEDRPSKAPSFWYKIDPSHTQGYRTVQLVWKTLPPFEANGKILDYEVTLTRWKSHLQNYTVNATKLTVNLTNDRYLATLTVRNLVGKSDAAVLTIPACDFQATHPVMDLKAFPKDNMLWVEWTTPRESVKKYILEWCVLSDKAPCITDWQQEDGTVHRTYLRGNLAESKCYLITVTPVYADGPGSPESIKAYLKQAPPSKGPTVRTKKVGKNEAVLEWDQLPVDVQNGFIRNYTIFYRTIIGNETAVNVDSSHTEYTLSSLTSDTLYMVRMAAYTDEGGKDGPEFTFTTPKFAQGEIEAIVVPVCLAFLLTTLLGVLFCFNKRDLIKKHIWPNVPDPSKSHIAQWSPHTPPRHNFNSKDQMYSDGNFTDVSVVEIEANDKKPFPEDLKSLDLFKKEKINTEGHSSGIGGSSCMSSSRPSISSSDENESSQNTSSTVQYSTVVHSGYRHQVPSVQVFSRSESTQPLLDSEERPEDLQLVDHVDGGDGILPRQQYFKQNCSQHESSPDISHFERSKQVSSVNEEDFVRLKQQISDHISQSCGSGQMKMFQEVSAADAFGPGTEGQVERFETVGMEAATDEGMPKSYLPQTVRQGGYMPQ

The test system of data set [2] is cartilage degeneration. The settings on record: rat model of OA.

With `Brc1ccc(Nc2nc(-c3ccccc3)cs2)cc1` [RCGD 423], the “interaction with gp130” value in data set [1] (in vitro) was “interacts with the extracellular region of gp130”. The “formation of gp130 homodimers” value in data set [1] (ligand-independent) is listed as “promotes the formation of active, ligand-independent gp130 homodimers”. Besides, in data set [2], the “prevention of cartilage degeneration” value is given as “remarkable ability to prevent cartilage degeneration”.
